# Data: patent publication US20210009914A1, “NOVEL APPLICATIONS OF PULSED ELECTRIC FIELD AND E-BEAM TECHNOLOGY” (KEMIN INDUSTRIES, INC., priority 2019, published 2021)
# Assays:
# Total Enterobacteriaceae [1] = experiment: Total Enterobacteriaceae count in naturally contaminated broiler feed, antimicrobial products with/without PEF (Example 1); type: cell-based
# Experimental: (§1) Feed materials. Pig feed, naturally contaminated with Enterobacteriaceae, was obtained from Feed Design Lab (the Netherlands). The naturally contaminated pig feed, not treated with an antimicrobial product, was diluted with mash broiler feed obtained from AVEVE until the required contamination level was obtained (Enterobacteriaceae contamination of 4 log cfu/g). After this dilution, the mash feed was mixed intensively to ensure a homogeneous contamination.
# PEF treatments. PEF experiments were carried out using the PEFPilot™ System (220V, 50 Hz) at ELEA GmbH (Quakenbrück, Germany) at room temperature. The feed was stored at room temperature (20-25° C.) before treatment. An amount of 50 percent additional water (tap-water at room temperature), was added to the feed to prevent the formation of air bubbles, which increase the chance for a dielectric breakdown and arching. Before PEF treatment, the treatment chamber was filled with the feed, the feed was leveled and pressed using a plastic stick. […] Exponential decay pulses with width of 40 microseconds and frequency of 2 Hz were applied. An electric field strength of 5 kV/cm and specific energies of 12 (60 pulses), 120 (600 pulses) and 168 kJ/kg (840 pulses) were applied. The treatment chamber was rinsed after each treatment and pre-cooled in ice-water before new feed samples were added. Each PEF treatment consisted of at least two replicates. The temperature of the feed was measured just after the PEF treatment.
# (§2) Application of antimicrobial products. The products were sprayed on a thin layer of the feed (portions of 300 g) by use of a nebulizer. The product Sal CURB® Ba Liquid (lot number: 1911110883) was dosed at 6 kg/T. Formic acid 85% (RM00672, lot 20000200403), the main component of Sal CURB Ba Liquid (i.e. 50% formic acid) was dosed at 3 kg/T and 6 kg/T. Sal CURB Ba Liquid also contains a mixture of different surfactants.
# Test setups. The effect of the application of the antimicrobials alone on the naturally contaminated feed was tested in a separate experiment. In a first series of PEF experiments (first trial), the antimicrobial products were sprayed on the feed just after applying the PEF treatments, while for the second series of experiments (second trial) the antimicrobial products were applied on the feed before the PEF treatments.
# (§3) Determination of total Enterobacteriacea level. The total Enterobacteriaceae level (TEC) of the feed samples not treated and treated with the antimicrobial products and/or PEF was determined at 24 h after PEF/product treatments. Three suspensions of each feed sample were prepared by mixing 10 g of the sample with 90 g of saline and by homogenizing the samples for 60 seconds in a Stomacher. RAPID' Enterobacteriaceae plates (Bio-Rad, 3564004) were inoculated using a spiral plate counter (Eddy Jet, IUL Instruments). The plates were incubated overnight at 37° C. for 24 h. After incubation, the colonies were counted manually. To obtain accurate results, the minimum number of colonies counted per plate was specified as 10 (a lower number gives less statistically significant results). Values below this limit, at the lowest sample dilution (100 cfu/g), were reported to a value equal to half of this limit (50 cfu/g). The colony-forming units were log-transformed prior to the statistical analyses. The microbiological data were analyzed using the Statgraphics Centurion XVI software (Statpoint Technologies, Inc., Virginia, USA). All data were subjected to one-way ANOVA and differences were separated using the least significant differences procedure. All statements of significance were based on a P-value less than 0.05, unless otherwise specified.
# Total Enterobacteriaceae [2] = experiment: Total Enterobacteriaceae count in naturally contaminated broiler feed, products before PEF at reduced additional water (Example 2); type: cell-based; conditions: 3 kg/T before PEF 5 kV/cm, medium 120 kJ/kg; for Log reduction: vs control of same water level
# Experimental: as §1
# as §2, with “500” for “300”, “191111883)” for “1911110883)”, “surfactants. After treatment, the samples were sent to ELEA GmbH (Quakenbrück, Germany) for PEF treatments.” for “surfactants.”
# PEF treatments. PEF experiments were carried out using the PEFPilot™ System (220V, 50 Hz) at ELEA GmbH (Quakenbrück, Germany) at room temperature. The PEF treatments were performed at 8 days after application of the antimicrobial products. The feed samples were stored at room temperature (20-25° C.) before PEF treatment. Each PEF treatment consisted of at least two replicates. Quantities of 50, 20 and 15 percent additional water (tap-water at room temperature), were added to the feed to prevent the formation of air bubbles, which increase the chance for a dielectric breakdown and arching. Before PEF treatment, the treatment chamber was filled with the feed, the feed was leveled and pressed using a plastic stick. […] Exponential decay pulses with width of 40 microseconds and frequency of 2 Hz were applied. An electric field strength of 5 kV/cm and a specific energetic level of 120 kJ/kg (600 pulses) was applied. The treatment chamber was rinsed after each treatment and pre-cooled in ice-water before new feed samples were added.
# Test setups. The antimicrobial products were always applied on the feed before the PEF treatments. The different quantities of added tap-water were mixed homogeneously in the feed just before the PEF treatments. After the treatments, all feed samples were stored at room temperature.
# as §3, with “products” for “products and/or PEF”, “at 10 days after product treatment. The TEC of the PEF treated samples was determined at 48” for “at 24”, “after PEF treatment.” for “after PEF/product treatments.”, “counted manually, as explained in the Internal Instruction.” for “counted manually.”
smiles,measurement,setting,value
O=CO [Formic acid],Log (cfu/g),"Total Enterobacteriaceae [1]; 3 kg/T applied after PEF 5 kV/cm, high intensity 168 kJ/kg, 50% additional water",3.34 h Log (cfu/g)
same,Log reduction,"Total Enterobacteriaceae [1]; 3 kg/T applied after PEF 5 kV/cm, high intensity 168 kJ/kg, vs no-treatment control",0.92 log
same,Log (cfu/g),"Total Enterobacteriaceae [1]; 3 kg/T applied after PEF 5 kV/cm, low intensity 12 kJ/kg, 50% additional water",3.94 de Log (cfu/g)
same,Log reduction,"Total Enterobacteriaceae [1]; 3 kg/T applied after PEF 5 kV/cm, low intensity 12 kJ/kg, vs no-treatment control",0.32 log
same,Log (cfu/g),"Total Enterobacteriaceae [1]; 3 kg/T applied after PEF 5 kV/cm, medium intensity 120 kJ/kg, 50% additional water",4.10 ad Log (cfu/g)
same,Log reduction,"Total Enterobacteriaceae [1]; 3 kg/T applied after PEF 5 kV/cm, medium intensity 120 kJ/kg, vs no-treatment control",0.16 log
same,Log (cfu/g),"Total Enterobacteriaceae [1]; 3 kg/T applied before PEF 5 kV/cm, high intensity 168 kJ/kg, 50% additional water",2.95 d Log (cfu/g)
same,Log reduction,"Total Enterobacteriaceae [1]; 3 kg/T applied before PEF 5 kV/cm, high intensity 168 kJ/kg, vs no-treatment control",2.14 log
same,Log (cfu/g),"Total Enterobacteriaceae [1]; 3 kg/T applied before PEF 5 kV/cm, medium intensity 120 kJ/kg, 50% additional water",3.58 c Log (cfu/g)
same,Log reduction,"Total Enterobacteriaceae [1]; 3 kg/T applied before PEF 5 kV/cm, medium intensity 120 kJ/kg, vs no-treatment control",1.51 log
same,Log (cfu/g),"Total Enterobacteriaceae [1]; 3 kg/T, no PEF, 50% additional water (Table 5, trial 2)",4.15 b Log (cfu/g)
same,Log reduction,"Total Enterobacteriaceae [1]; 3 kg/T, no PEF, vs no-treatment control (Table 5, trial 2)",0.94 log
same,Log (cfu/g),"Total Enterobacteriaceae [1]; 3 kg/T, product alone, no PEF (Table 3)",3.80 ab Log (cfu/g)
same,Log reduction,"Total Enterobacteriaceae [1]; 3 kg/T, product alone, no PEF, vs untreated control (Table 3)",0.37 log
same,Log (cfu/g),"Total Enterobacteriaceae [1]; 6 kg/T applied after PEF 5 kV/cm, high intensity 168 kJ/kg, 50% additional water",3.06 i Log (cfu/g)
same,Log reduction,"Total Enterobacteriaceae [1]; 6 kg/T applied after PEF 5 kV/cm, high intensity 168 kJ/kg, vs no-treatment control",1.20 log
same,Log (cfu/g),"Total Enterobacteriaceae [1]; 6 kg/T applied after PEF 5 kV/cm, low intensity 12 kJ/kg, 50% additional water",4.03 ade Log (cfu/g)
same,Log reduction,"Total Enterobacteriaceae [1]; 6 kg/T applied after PEF 5 kV/cm, low intensity 12 kJ/kg, vs no-treatment control",0.23 log
same,Log (cfu/g),"Total Enterobacteriaceae [1]; 6 kg/T applied after PEF 5 kV/cm, medium intensity 120 kJ/kg, 50% additional water",3.71 fg Log (cfu/g)
same,Log reduction,"Total Enterobacteriaceae [1]; 6 kg/T applied after PEF 5 kV/cm, medium intensity 120 kJ/kg, vs no-treatment control",0.55 log
same,Log (cfu/g),"Total Enterobacteriaceae [1]; 6 kg/T applied before PEF 5 kV/cm, high intensity 168 kJ/kg, 50% additional water",1.70 f^ Log (cfu/g)
same,Log reduction,"Total Enterobacteriaceae [1]; 6 kg/T applied before PEF 5 kV/cm, high intensity 168 kJ/kg, vs no-treatment control",3.39 log
same,Log (cfu/g),"Total Enterobacteriaceae [1]; 6 kg/T applied before PEF 5 kV/cm, medium intensity 120 kJ/kg, 50% additional water",2.25 e Log (cfu/g)
same,Log reduction,"Total Enterobacteriaceae [1]; 6 kg/T applied before PEF 5 kV/cm, medium intensity 120 kJ/kg, vs no-treatment control",2.84 log
same,Log (cfu/g),"Total Enterobacteriaceae [1]; 6 kg/T, no PEF, 50% additional water (Table 5, trial 2)",3.55 c Log (cfu/g)
same,Log reduction,"Total Enterobacteriaceae [1]; 6 kg/T, no PEF, vs no-treatment control (Table 5, trial 2)",1.54 log
same,Log (cfu/g),"Total Enterobacteriaceae [1]; 6 kg/T, product alone, no PEF (Table 3)",3.33 b Log (cfu/g)
same,Log reduction,"Total Enterobacteriaceae [1]; 6 kg/T, product alone, no PEF, vs untreated control (Table 3)",0.84 log
same,Log (cfu/g),Total Enterobacteriaceae [2]; 15% additional water,2.83 c Log (cfu/g)
same,Log reduction,Total Enterobacteriaceae [2]; 15% additional water,1.44 log
same,Log reduction,"Total Enterobacteriaceae [2]; 15% additional water, listed as formic acid",1.4 log
same,Log (cfu/g),Total Enterobacteriaceae [2]; 20% additional water,2.30 d Log (cfu/g)
same,Log reduction,Total Enterobacteriaceae [2]; 20% additional water,2.20 log
same,Log (cfu/g),Total Enterobacteriaceae [2]; 50% additional water,2.82 c Log (cfu/g)
same,Log reduction,Total Enterobacteriaceae [2]; 50% additional water,1.60 log
